Test results from paper PMC7725824, “Fused isoselenazolium salts suppress breast cancer cell growth by dramatic increase in pyruvate-dependent mitochondrial ROS production” (Scientific Reports, 2020).

Columns and labels:
MCF-7 cells [1] = experiment: NAD+/NADH assay kit measurement; format: cell-based, human; settings: 2 μM, 10 min, vs control
Procedure: The NAD^+/NADH ratio in the MCF-7 cells exposed to the test compounds (2 μM) for 10 min was measured using an NAD^+/NADH assay kit (Abcam, ab65348) according to the manufacturer's instructions.

[2] = Cytotoxicity assay (MTT), 3T3; format: cell-based, mouse; settings: mouse, NIH 3T3 cells (fibroblasts), normal cell line, mean ± S.D., 3 experiments
Procedure: (§1) MCF-7 (human breast adenocarcinoma, estrogen-positive) and 4T1 (mouse carcinoma), as breast cancer cell lines, and H9C2 (rat cardiomyoblasts), NIH 3T3 (mouse fibroblasts), HEKa (primary human epidermal keratinocytes), MDCK (Madin-Darby Canine Kidney) cells, and A7r5 (rat vascular smooth muscle cells), as normal cell lines, were obtained from the American Type Culture Collection [ATCC] collection for use in the current study. All cell lines were cultured in Dulbecco's modified Eagle's medium (DMEM) containing 10% fetal bovine serum (FBS) and 4 mM L-glutamine at 37 °C and 5% CO2.
(§2) Cell viability was assessed by the addition of 3-(4,5-dimethylthiazol-2-yl)-2,5-diphenyltetrazolinium bromide (MTT). Briefly, cells were seeded (2–6 × 10^4 cells/ml) in 96-well plates and allowed to attach for 24 h. Solutions of test compounds were prepared and serially diluted to obtain the appropriate concentrations. The cells were treated with the test compounds at different concentrations (0.032–100 µM) and incubated for 48 h at 37 °C and 5% CO2. Then, the culture medium was removed, and medium containing 0.2 mg/ml MTT was added. After 3 h (37 °C, 5% CO2), the MTT-containing medium was removed, and 200 μl of dimethyl sulfoxide (DMSO) was immediately added to each sample. The absorbance was assessed at 540 nm using a Tecan multiplate reader Infinite 1000 (Austria). The half-maximal inhibitory concentration (IC50) of each compound was calculated using Graph Pad Prism 3.0.

[3] = test system: CL/DOPC (1:3) vesicles (cardiolipin); experiment: Isothermal titration calorimetry with CL/DOPC liposomes; format: binding; settings: 25 °C
Procedure: The obtained large multilamellar liposomes were sonicated in a bath-type sonicator (Cole Parmer Ultrasonic Cleaner 8891CPX (USA)) at room temperature for 30 min and then extruded (LiposoFast-Basic, Avestin) through a 100 nm polycarbonate filter 21 times. The quality of the resulting small unilamellar vesicles was determined by dynamic light scattering (DLS) (Zetasizer Nano ZSP, Malvern Panalytical Ltd., UK).
The experiments were carried out using an isothermal titration calorimeter (MicroCal iTC200, Malvern Panalytical Ltd., UK). To carry out the titration, the injection syringe was filled with a solution of compound 6 (100 µM), and the reaction cell was filled with liposome dispersion (200 µM of total lipid). The experiments were performed at 25 and 37 °C with a stirring speed of 750 rpm. […] The data consisted of a series of heat flows as a function of time, which were collected automatically and analyzed by Origin 7 software (OriginLab Corporation, Northampton, USA, www.originlab.com, 2002). The changes in enthalpy (ΔH) due to the interactions between 6 and the liposome dispersions were recorded, and then stoichiometry (N), the association constant (KA), the dissociation constant (KD), entropy (ΔS) and the Gibbs free energy (ΔG) were calculated. The obtained sigmoidal titration curves were evaluated assuming independent saturable binding sites in the outer vesicle interface. […]

DOPC liposomes = experiment: 1H NMR interaction study with DOPC liposomes; format: binding; settings: 0.4 mM 6, 1.6 mM DOPC, 25 °C
Procedure: Cardiolipin (CL) liposomes for NMR analysis were prepared by the thin-film method followed by sonication and extrusion. […] The obtained lipid thin film was dried in vacuo overnight. Then, the dry lipid film was rehydrated in D18 HEPES buffer (20 mM, pH 7.4, 10% D2O) and gently vortexed, and the samples were sonicated for 30 min in a bath-type sonicator. The obtained sample of liposomes was extruded 21 times through a 100-nm pore polycarbonate filter (Nucleopore Corp., CA). Similarly, liposomes from DOPC only were prepared.
To study the interactions of compound 6 with CL and DOPC liposomes, a stock solution of 6 (2 mM) in D18 HEPES buffer (20 mM, pH 7.4, 10% D2O) was added to CL/DOPC or DOPC liposome dispersions to reach 400:1200:400 µM CL/DOPC/6 solution or 1600:400 µM DOPC/6 solution followed by gentle vortexing for 30 s.
NMR spectra were acquired on a 600‐MHz Bruker Avance NEO spectrometer equipped with a 5 mm QCI-F quadruple resonance pulsed‐field‐gradient cryoprobe. The temperature was calibrated against methanol and set to 25 °C. Chemical shifts were referenced to the water resonance at 4.77 ppm with respect to 4,4-dimethyl-4-silapentane-1-sulfonic acid (DSS). The samples contained […] 6 in 90% H2O and 10% D2O with and without DOPC or CL/DOPC liposomes. The NMR data were processed and analyzed using MestReNova software.

4T1 = experiment: Cytotoxicity assay (MTT), 4T1; format: cell-based, mouse; settings: Mus musculus, 4T1; breast cancer cell line; MTT, 48 h; mean ± S.D., 3 experiments; read-out: Cytotoxicity, IC50, 4T1
Procedure: as §1, §2

[4] = Cytotoxicity assay (MTT), H9C2; format: cell-based, rat; settings: rat, H9C2 cells (cardiomyoblasts); normal cell line; MTT, 48 h; mean ± S.D., 3 experiments
Procedure: as §1, §2

[5] = Cytotoxicity assay (MTT), MDCK; format: cell-based, Canine; settings: dog, MDCK cells, normal cell line, mean ± S.D., 3 experiments
Procedure: as §1, §2

MCF-7 = experiment: Cytotoxicity assay (MTT), MCF-7; format: cell-based, human; settings: Homo sapiens, MCF7; breast cancer cell line; MTT, 48 h; mean ± S.D., 3 experiments; read-out: Cytotoxicity, IC50, MCF-7
Procedure: as §1, §2

MCF-7 cells [6] = experiment: Fluorometric measurement of NMN level; format: cell-based, human; settings: 2 μM, 10 min, vs control
Procedure: For fluorometric measurements of NMN, a previously described method was used, with minor modifications. […] The cells were washed with PBS and then lysed by adding 200 μl of 1 M HClO4 to each well and incubating at 4 °C for 20 min. The cells were harvested by scraping and transferred to a tube. The extracts were neutralized with 100 μl of 2 M KOH for 5 min at room temperature and 50 μl of 0.1 M bicine (pH 7.4) was added. The samples were centrifuged at 14 000 × g for 10 min at 4 °C, and the supernatant was collected for further analysis. The protein concentration in each sample was determined using a Bio-Rad protein assay kit. […] The reaction was incubated for 2 min at 4 °C, after which 45 μl of 88% formic acid was added, and the samples were incubated for another 10 min at 37 °C on a shaker. The fluorescence was measured using a Tecan multiplate reader Infinite 1000 (Austria) with excitation at 382 nm and emission at […].

Compound: OC1(c2[se][n+]3ccsc3c2Br)CCCCC1 [Compound 6, 3-bromo-2-(1-hydroxycyclohexyl)[1,2]selenazolo[2,3-b]thiazolium chloride]
- decrease in NAD+ level (MCF-7 cells [1]): 25%
- decrease in NAD+/NADH ratio (MCF-7 cells [1]): without affecting
- decrease in NADH level (MCF-7 cells [1]): without affecting
- IC50 at 48 h [2]: 7.4 ± 0.8 µM
- ITC isoselenazolium cation–CL interaction [3]: decrease in enthalpy
- aromatic 1H NMR resonances in the presence of DOPC liposomes (DOPC liposomes): noticeably broadened
- IC50 (4T1): 1700 ± 200 nM
- IC50 at 48 h [4]: 3.7 ± 0.2 µM
- IC50 at 48 h [5]: 6.58 ± 0.33 µM
- IC50 (MCF-7): 3.23 ± 0.03 µM
- decrease in NMN levels (MCF-7 cells [6]): 26%
